Laboratory results published in patent US10106538B2, “Inhibitors of protein kinases” (PRINCETON DRUG DISCOVERY INC, priority 2015, dated 2018).
Each block holds one compound with its values, some of them ahead of it.

How the values were obtained:
Assay in all cases: Off-chip Mobility Shift Assay (MSA) kinase inhibition
Format in all cases: biochemical
FGFR2 = biological target: T1, FGFR2 (Homo sapiens, UniProt P21802)
T1 construct: purchased Carna Biosciences
Experimental: (§1) Off-chip Mobility Shift Assay (MSA) by Cama Biosciences, Inc (Natick, Mass.) a used for measuring the kinase activity and inhibition. • 1) The 5 μL of x4 compound solution, 5 μL of x4 Substrate/ATP/Metal solution, and 10 μL of x2 kinase solution were prepared with assay buffer (20 mM HEPES, 0.01% Triton X100, 2 mM DTT, pH 7.5) and mixed and incubated in a well of polypropylene 384 well microplate for 1 or 5 hour(s)* at room temperature.

BTK = biological target: T2, BTK (Homo sapiens, UniProt Q06187); conditions: for inhibition at 0.1 µM: inhibitor concentration 0.1 μM
T2 construct: purchased Carna Biosciences
T2 sequence (Q06187 whole entry): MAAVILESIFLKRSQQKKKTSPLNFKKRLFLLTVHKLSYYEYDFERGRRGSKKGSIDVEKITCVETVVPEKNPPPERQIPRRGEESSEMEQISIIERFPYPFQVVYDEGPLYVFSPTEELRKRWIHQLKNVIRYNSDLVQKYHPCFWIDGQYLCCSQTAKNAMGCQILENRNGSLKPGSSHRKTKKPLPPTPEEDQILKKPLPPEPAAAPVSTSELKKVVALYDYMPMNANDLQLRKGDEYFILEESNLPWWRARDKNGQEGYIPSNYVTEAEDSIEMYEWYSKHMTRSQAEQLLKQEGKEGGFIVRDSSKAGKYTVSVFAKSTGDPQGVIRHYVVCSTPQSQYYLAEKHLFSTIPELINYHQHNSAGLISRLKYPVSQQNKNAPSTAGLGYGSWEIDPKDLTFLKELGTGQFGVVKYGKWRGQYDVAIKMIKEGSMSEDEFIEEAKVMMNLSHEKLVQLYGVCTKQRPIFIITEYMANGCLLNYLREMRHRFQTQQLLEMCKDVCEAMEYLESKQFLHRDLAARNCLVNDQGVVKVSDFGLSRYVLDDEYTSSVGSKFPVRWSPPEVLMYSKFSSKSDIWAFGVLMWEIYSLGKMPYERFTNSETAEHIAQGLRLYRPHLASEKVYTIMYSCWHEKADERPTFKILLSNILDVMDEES
Experimental: as §1

ALK = biological target: T3, ALK (Homo sapiens, UniProt Q9UM73)
T3 construct: purchased Carna Biosciences
Experimental: as §1

PIK3CA/PIK3R1 = biological target: T4, PIK3CA/PIK3R1 (Homo sapiens, UniProt P42336)
T4 construct: purchased Carna Biosciences
Experimental: as §1

Erk5 = biological target: T5, Erk5 (Homo sapiens, UniProt Q13164)
T5 construct: purchased Carna Biosciences
Experimental: as §1

RET = biological target: T6, RET (Homo sapiens, UniProt P07949); conditions: for inhibition at 0.1 µM: inhibitor concentration 0.1 μM
T6 construct: purchased Carna Biosciences
Experimental: as §1

MNK1 = biological target: T7, MNK1 (Homo sapiens, UniProt Q9BUB5)
T7 construct: purchased Carna Biosciences
Experimental: as §1

FGR = biological target: T8, FGR (Homo sapiens, UniProt P09769); conditions: for inhibition at 0.1 µM: inhibitor concentration 0.1 μM
T8 construct: purchased Carna Biosciences
T8 sequence (P09769 whole entry): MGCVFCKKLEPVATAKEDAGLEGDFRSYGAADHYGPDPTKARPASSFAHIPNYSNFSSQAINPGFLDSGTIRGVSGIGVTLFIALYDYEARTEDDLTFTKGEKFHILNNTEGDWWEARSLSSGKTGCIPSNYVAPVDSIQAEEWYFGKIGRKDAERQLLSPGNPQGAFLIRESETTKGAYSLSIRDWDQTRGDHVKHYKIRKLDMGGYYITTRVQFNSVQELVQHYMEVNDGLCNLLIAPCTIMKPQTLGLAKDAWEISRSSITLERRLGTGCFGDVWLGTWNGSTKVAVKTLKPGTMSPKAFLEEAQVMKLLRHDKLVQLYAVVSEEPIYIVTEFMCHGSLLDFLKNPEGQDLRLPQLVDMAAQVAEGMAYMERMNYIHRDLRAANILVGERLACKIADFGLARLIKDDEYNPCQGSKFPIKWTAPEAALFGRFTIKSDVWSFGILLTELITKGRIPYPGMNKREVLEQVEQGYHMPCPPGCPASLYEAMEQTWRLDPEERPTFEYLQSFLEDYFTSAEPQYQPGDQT
Experimental: as §1

JAK1 = biological target: T9, JAK1 (Homo sapiens, UniProt P23458); conditions: for inhibition at 0.1 µM: inhibitor concentration 0.1 μM
T9 construct: purchased Carna Biosciences
T9 sequence (P23458 whole entry): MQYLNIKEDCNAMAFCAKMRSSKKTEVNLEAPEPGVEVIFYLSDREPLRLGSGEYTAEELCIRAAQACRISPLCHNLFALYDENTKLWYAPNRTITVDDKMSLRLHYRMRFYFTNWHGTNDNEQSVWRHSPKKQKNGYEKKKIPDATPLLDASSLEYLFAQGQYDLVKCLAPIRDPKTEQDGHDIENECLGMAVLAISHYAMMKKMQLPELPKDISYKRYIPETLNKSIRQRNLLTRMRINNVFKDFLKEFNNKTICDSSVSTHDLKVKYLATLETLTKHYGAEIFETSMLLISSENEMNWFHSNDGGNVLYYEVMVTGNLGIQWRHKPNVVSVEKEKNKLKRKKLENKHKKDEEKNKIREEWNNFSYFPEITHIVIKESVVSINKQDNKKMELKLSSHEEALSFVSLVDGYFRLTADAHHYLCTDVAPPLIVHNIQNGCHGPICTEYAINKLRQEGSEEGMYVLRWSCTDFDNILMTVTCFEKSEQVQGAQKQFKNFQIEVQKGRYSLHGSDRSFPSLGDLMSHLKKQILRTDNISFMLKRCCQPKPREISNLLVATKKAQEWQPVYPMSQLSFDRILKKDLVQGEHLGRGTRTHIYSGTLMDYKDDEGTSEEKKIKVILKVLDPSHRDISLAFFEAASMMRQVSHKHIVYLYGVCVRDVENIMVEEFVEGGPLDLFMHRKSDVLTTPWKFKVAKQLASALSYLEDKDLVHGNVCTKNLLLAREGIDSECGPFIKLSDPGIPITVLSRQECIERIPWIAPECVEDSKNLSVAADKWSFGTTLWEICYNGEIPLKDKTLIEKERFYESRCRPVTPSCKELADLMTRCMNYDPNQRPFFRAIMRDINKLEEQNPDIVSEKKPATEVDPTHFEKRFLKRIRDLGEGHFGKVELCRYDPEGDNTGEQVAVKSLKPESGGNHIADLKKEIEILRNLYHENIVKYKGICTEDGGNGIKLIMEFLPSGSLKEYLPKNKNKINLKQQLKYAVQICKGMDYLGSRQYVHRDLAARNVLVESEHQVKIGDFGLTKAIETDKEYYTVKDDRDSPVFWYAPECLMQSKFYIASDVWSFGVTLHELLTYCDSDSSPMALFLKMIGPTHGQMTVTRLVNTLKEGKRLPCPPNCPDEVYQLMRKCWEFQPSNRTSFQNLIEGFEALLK
Experimental: as §1

JAK2 = biological target: T10, JAK2 (Homo sapiens, UniProt O60674); conditions: for inhibition at 0.1 µM: inhibitor concentration 0.1 μM
T10 construct: purchased Carna Biosciences
T10 sequence (O60674 whole entry): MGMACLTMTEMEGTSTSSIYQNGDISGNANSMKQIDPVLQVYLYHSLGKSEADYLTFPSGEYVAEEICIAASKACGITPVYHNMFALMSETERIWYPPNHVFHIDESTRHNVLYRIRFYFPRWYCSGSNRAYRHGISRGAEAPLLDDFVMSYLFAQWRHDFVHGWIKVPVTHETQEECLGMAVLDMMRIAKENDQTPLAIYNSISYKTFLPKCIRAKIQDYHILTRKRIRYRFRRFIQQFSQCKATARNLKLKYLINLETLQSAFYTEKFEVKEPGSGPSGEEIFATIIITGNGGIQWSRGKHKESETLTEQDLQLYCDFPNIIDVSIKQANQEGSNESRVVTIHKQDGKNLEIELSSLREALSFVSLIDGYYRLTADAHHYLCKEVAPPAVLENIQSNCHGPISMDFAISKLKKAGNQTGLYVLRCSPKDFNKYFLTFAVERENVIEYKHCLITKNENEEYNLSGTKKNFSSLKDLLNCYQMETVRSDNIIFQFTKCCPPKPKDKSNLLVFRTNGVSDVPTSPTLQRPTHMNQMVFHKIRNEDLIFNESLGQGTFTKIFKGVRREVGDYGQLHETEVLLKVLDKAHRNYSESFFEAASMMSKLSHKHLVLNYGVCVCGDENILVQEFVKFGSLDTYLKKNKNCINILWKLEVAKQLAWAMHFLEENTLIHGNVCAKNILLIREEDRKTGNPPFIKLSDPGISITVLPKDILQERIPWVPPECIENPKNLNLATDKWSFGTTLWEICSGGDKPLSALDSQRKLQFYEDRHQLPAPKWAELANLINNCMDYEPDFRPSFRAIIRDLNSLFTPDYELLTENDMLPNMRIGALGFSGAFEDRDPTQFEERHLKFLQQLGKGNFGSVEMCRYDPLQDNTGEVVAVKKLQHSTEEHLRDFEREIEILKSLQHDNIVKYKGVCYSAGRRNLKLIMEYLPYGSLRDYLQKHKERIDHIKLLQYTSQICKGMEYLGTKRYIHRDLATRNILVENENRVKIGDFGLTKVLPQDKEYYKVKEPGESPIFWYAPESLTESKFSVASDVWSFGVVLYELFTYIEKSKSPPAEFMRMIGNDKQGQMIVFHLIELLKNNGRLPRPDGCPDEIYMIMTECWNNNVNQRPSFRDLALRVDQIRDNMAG
Experimental: as §1

KIT(T670I) = biological target: T11, KIT(T670I) (Homo sapiens, UniProt P10721, T670I)
T11 construct: purchased Carna Biosciences
T11 sequence (P10721 26-976 T670I): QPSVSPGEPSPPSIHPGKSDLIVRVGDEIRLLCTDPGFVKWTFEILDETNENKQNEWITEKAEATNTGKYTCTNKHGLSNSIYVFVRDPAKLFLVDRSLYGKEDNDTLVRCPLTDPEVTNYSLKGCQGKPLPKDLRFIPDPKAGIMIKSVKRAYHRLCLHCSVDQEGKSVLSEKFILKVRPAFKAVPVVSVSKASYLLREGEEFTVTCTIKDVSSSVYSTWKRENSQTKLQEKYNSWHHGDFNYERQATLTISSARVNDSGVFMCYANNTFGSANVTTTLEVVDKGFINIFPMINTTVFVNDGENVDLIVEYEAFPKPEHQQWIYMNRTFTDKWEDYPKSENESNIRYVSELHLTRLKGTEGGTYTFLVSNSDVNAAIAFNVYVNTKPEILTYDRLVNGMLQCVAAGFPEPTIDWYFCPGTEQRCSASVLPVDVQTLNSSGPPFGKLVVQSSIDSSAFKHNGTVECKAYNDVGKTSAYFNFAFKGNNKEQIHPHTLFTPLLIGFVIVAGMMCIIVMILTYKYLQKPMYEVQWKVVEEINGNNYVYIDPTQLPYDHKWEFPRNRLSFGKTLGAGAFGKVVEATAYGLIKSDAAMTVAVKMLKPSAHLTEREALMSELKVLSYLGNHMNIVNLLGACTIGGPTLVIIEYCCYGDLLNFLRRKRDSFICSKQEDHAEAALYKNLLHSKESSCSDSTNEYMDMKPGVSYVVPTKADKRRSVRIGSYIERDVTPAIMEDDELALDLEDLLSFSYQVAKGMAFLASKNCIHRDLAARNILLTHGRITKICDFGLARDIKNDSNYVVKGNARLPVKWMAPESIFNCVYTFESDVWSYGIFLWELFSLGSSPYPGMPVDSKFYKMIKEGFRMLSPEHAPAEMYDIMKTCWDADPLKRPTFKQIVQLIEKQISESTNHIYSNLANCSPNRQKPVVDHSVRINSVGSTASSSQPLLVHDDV
Experimental: as §1

HER4 = biological target: T12, HER4 (Homo sapiens, UniProt Q15303)
T12 construct: purchased Carna Biosciences
Experimental: as §1

KIT(D816V) = biological target: T13, KIT(D816V) (Homo sapiens, UniProt P10721, D816V)
T13 construct: purchased Carna Biosciences
T13 sequence (P10721 26-976 D816V): as the sequence (P10721 26-976 T670I) above, with I645T, D791V counted along it
Experimental: as §1

KIT(V560G) = biological target: T14, KIT(V560G) (Homo sapiens, UniProt P10721, V560G); conditions: for inhibition at 0.1 µM: inhibitor concentration 0.1 μM
T14 construct: purchased Carna Biosciences
T14 sequence (P10721 26-976 V560G): as the sequence (P10721 26-976 T670I) above, with V535G, I645T counted along it
Experimental: as §1

FLT3 = biological target: T15, FLT3 (Homo sapiens, UniProt P36888)
T15 construct: purchased Carna Biosciences
T15 sequence (P36888 27-993): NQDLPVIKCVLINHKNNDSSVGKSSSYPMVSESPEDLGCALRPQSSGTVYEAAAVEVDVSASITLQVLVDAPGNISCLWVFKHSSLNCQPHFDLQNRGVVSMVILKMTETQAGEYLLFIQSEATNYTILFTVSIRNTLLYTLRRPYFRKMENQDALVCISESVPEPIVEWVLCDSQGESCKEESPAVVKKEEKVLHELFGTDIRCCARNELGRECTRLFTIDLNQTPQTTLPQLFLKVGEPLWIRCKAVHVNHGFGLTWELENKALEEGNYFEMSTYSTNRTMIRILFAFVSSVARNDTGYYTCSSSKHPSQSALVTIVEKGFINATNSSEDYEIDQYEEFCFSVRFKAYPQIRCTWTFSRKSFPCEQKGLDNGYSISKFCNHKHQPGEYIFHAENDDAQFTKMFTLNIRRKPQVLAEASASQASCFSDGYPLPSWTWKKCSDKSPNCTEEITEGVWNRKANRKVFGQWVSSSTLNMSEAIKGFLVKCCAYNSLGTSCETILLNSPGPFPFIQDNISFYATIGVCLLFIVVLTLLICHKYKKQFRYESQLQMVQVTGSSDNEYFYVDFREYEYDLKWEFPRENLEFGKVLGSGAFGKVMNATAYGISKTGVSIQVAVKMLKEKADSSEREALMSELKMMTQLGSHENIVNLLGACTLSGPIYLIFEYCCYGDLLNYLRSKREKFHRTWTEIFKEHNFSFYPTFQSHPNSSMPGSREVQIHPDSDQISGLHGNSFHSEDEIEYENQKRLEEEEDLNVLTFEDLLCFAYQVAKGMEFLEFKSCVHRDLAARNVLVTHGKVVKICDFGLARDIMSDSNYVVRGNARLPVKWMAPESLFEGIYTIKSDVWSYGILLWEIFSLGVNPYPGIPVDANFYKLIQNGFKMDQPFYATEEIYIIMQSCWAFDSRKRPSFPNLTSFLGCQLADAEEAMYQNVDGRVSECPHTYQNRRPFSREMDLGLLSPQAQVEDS
Experimental: as §1

SRM = biological target: T16, SRM (Homo sapiens, UniProt Q9H3Y6); conditions: for inhibition at 0.1 µM: inhibitor concentration 0.1 μM
T16 construct: purchased Carna Biosciences
Experimental: as §1

LYNb = biological target: T17, LYNb (Homo sapiens, UniProt P07948); conditions: for inhibition at 0.1 µM: inhibitor concentration 0.1 μM
T17 construct: purchased Carna Biosciences
T17 sequence (P07948 1-491 isoform P07948-2): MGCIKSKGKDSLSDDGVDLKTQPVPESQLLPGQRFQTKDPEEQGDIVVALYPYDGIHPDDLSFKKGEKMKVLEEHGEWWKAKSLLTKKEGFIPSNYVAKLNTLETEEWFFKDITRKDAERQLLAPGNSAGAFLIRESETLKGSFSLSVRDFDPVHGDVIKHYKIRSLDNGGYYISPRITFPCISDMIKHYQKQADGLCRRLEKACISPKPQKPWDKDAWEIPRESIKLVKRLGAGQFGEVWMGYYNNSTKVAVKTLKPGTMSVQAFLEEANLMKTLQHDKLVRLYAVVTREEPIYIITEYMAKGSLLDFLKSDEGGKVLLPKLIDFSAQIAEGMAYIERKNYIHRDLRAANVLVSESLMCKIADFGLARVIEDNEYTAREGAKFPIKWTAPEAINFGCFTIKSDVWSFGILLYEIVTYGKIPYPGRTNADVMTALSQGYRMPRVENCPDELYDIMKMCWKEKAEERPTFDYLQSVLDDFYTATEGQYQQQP
Experimental: as §1

EGFR = biological target: T18, EGFR (Homo sapiens, UniProt P00533)
T18 construct: purchased Carna Biosciences
Experimental: as §1

MNK2 = biological target: T19, MNK2 (Homo sapiens, UniProt Q9HBH9)
T19 construct: purchased Carna Biosciences
Experimental: as §1

KIT = biological target: T20, KIT (Homo sapiens, UniProt P10721); conditions: for inhibition at 0.1 µM: inhibitor concentration 0.1 μM
T20 construct: purchased Carna Biosciences
T20 sequence (P10721 26-976): as the sequence (P10721 26-976 T670I) above, with I645T counted along it
Experimental: as §1

EGFR(L858R) = biological target: T21, EGFR(L858R) (Homo sapiens, UniProt P00533, L858R); conditions: inhibitor concentration 0.1 μM
T21 construct: purchased Carna Biosciences
Experimental: as §1

PKACα = biological target: T22, PKACα (Homo sapiens, UniProt P17612); conditions: inhibitor concentration 0.1 μM
T22 construct: purchased Carna Biosciences, Inc
Experimental: as §1

JNK3 = biological target: T23, JNK3 (Homo sapiens, UniProt P53779); conditions: inhibitor concentration 0.1 μM
T23 construct: purchased Carna Biosciences, Inc
Experimental: as §1

JNK1 = biological target: T24, JNK1 (Homo sapiens, UniProt P45983); conditions: inhibitor concentration 0.1 μM
T24 construct: purchased Carna Biosciences
Experimental: as §1

PIM2 = biological target: T25, PIM2 (Homo sapiens, UniProt Q9P1W9); conditions: inhibitor concentration 0.1 μM
T25 construct: purchased Carna Biosciences
Experimental: as §1

[1] = inhibitor concentration 0.01 μM

inhibition at 1 µM (FGFR2; inhibitor concentration 1 μM): > 50% | inhibition at 0.01 µM (BTK; [1]): < 30% | inhibition at 0.1 µM (BTK): < 50% | inhibition at 1 µM (BTK; inhibitor concentration 1 μM): < 50% | inhibition at 1 µM (ALK; inhibitor concentration 1 μM): > 50% | inhibition at 1 µM (PIK3CA/PIK3R1; inhibitor concentration 1 μM): > 50% | inhibition at 1 µM (Erk5; inhibitor concentration 1 μM): > 50% | inhibition at 0.01 µM (RET; [1]): < 30% | inhibition at 0.1 µM (RET): < 50% | inhibition at 1 µM (RET; inhibitor concentration 1 μM): > 50% | inhibition at 1 µM (MNK1; inhibitor concentration 1 μM): > 50% | inhibition at 0.01 µM (FGR; [1]): > 30% | inhibition at 0.1 µM (FGR): > 50% | inhibition at 1 µM (FGR; inhibitor concentration 1 μM): > 50% | inhibition at 0.01 µM (JAK1; [1]): > 30% | inhibition at 0.1 µM (JAK1): > 50% | inhibition at 1 µM (JAK1; inhibitor concentration 1 μM): > 50% | inhibition at 0.01 µM (JAK2; [1]): < 30% | inhibition at 0.1 µM (JAK2): > 50% | inhibition at 1 µM (JAK2; inhibitor concentration 1 μM): > 50% | inhibition at 1 µM (KIT(T670I); inhibitor concentration 1 μM): < 50% | inhibition at 1 µM (HER4; inhibitor concentration 1 μM): > 50% | inhibition at 1 µM (KIT(D816V); inhibitor concentration 1 μM): > 50% | inhibition at 0.01 µM (KIT(V560G); [1]): < 30% | inhibition at 0.1 µM (KIT(V560G)): > 50% | inhibition at 1 µM (KIT(V560G); inhibitor concentration 1 μM): > 50% | inhibition at 1 µM (FLT3; inhibitor concentration 1 μM): > 50% | inhibition at 0.01 µM (SRM; [1]): > 30% | inhibition at 0.1 µM (SRM): > 50% | inhibition at 1 µM (SRM; inhibitor concentration 1 μM): > 50% | inhibition at 0.01 µM (LYNb; [1]): < 30% | inhibition at 0.1 µM (LYNb): > 50% | inhibition at 1 µM (LYNb; inhibitor concentration 1 μM): > 50% | inhibition at 1 µM (EGFR; inhibitor concentration 1 μM): > 50% | inhibition at 1 µM (MNK2; inhibitor concentration 1 μM): > 50% | inhibition at 0.01 µM (KIT; [1]): > 30% | inhibition at 0.1 µM (KIT): > 50% | inhibition at 1 µM (KIT; inhibitor concentration 1 μM): > 50%
Compound: O=C(c1c(F)ccc(NS(=O)(=O)CCCO)c1F)c1c[nH]c2ncc(-c3ccc(Cl)cc3)cc12 [200-17, N-[3-[5-(4-chlorophenyl)-1H-pyrrolo[2,3-b]pyridine-3-carbonyl]-2,4-difluorophenyl]-3-hydroxypropane-1-sulfonamide]

inhibition at 0.1 µM (EGFR(L858R)): < 30% | inhibition at 0.1 µM (FGFR2; inhibitor concentration 0.1 μM): < 30% | inhibition at 0.1 µM (PKACα): < 30% | inhibition at 0.1 µM (BTK): < 30% | inhibition at 0.1 µM (ALK; inhibitor concentration 0.1 μM): < 30% | inhibition at 0.1 µM (JNK3): < 30% | inhibition at 0.1 µM (PIK3CA/PIK3R1; inhibitor concentration 0.1 μM): < 30% | inhibition at 0.1 µM (Erk5; inhibitor concentration 0.1 μM): < 30% | inhibition at 0.1 µM (RET): < 30% | inhibition at 0.1 µM (MNK1; inhibitor concentration 0.1 μM): < 30% | inhibition at 0.1 µM (FGR): < 30% | inhibition at 0.1 µM (JAK1): > 30% | inhibition at 0.1 µM (JNK1): < 30% | inhibition at 0.1 µM (JAK2): < 30% | inhibition at 0.1 µM (PIM2): < 30% | inhibition at 0.1 µM (KIT(T670I); inhibitor concentration 0.1 μM): < 30% | inhibition at 0.1 µM (HER4; inhibitor concentration 0.1 μM): < 30% | inhibition at 0.1 µM (KIT(D816V); inhibitor concentration 0.1 μM): < 30% | inhibition at 0.1 µM (KIT(V560G)): < 30% | inhibition at 0.1 µM (FLT3; inhibitor concentration 0.1 μM): < 30% | inhibition at 0.1 µM (SRM): > 30% | inhibition at 0.1 µM (LYNb): < 30% | inhibition at 0.1 µM (EGFR; inhibitor concentration 0.1 μM): < 30% | inhibition at 0.1 µM (MNK2; inhibitor concentration 0.1 μM): < 30% | inhibition at 0.1 µM (KIT): < 30%
Compound: O=C(c1c(F)ccc(NS(=O)(=O)CC(O)CO)c1F)c1c[nH]c2ncc(-c3ccc(Cl)cc3)cc12 (stereo not drawn) [200-73, N-[3-[5-(4-chlorophenyl)-lH-pyrrolo [2,3-b]pyridine-3-carbonyl]-2,4-difluorophenyl]-2,3-dihydroxypropane-l-sulfonamide]
